Results as given in patent US9695155B2, “Herbicidal substituted pyrimidinyloxy benzene compounds” (E. I. DU PONT DE NEMOURS AND COMPANY, priority 2013, dated 2017).

Key:
Italian ryegrass = test: Test D preemergence; assay type: in vivo, Lolium multiflorum; settings: Lolium multiflorum, pre-emergence
How it was run: (§1)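 Seeds sown in silt loam soil got preemergence sprays; plants in peat/vermiculite potting medium were sprayed postemergence at 2–18 cm (1- to 4-leaf stage). Chemicals were formulated in a non-phytotoxic solvent mixture with surfactant. After 7 to 21 days in a controlled environment, injury was rated visually versus controls, 0 (no effect) to 100 (complete control).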

sandbur = test: Test E postemergence; assay type: in vivo, Cenchrus echinatus; settings: Cenchrus echinatus, post-emergence, read-out: Plant response rating, Sandbur
How it was run: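 Compound in a non-phytotoxic solvent mixture with surfactant was applied preemergence to seeds in silt loam soil, or postemergence to plants 2 to 18 cm tall grown in peat-based potting medium. Plants were kept in a greenhouse for 14 to 21 days, then rated visually against untreated controls on a 0 (no effect) to 100 (complete control) scale.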

oilseed rape = test: Test D preemergence; assay type: in vivo, Brassica napus; settings: Brassica napus, pre-emergence, scale 0-100, read-out: Plant response rating, Oilseed Rape
How it was run: as §1

wild radish = test: Test D postemergence; assay type: in vivo, Raphanus raphanistrum; settings: Raphanus raphanistrum, post-emergence, scale 0 to 100 (0 no effect, 100 complete control), read-out: Plant response rating, Radish, Wild
How it was run: as §1

blackgrass [1] = test: Test D postemergence; assay type: in vivo, Alopecurus myosuroides; settings: Alopecurus myosuroides, post-emergence, Postemergence, scale 0 to 100 (0 no effect, 100 complete control), read-out: Plant response rating, Blackgrass
How it was run: as §1

speedwell = test: Test D preemergence; assay type: in vivo, Veronica persica; settings: Veronica persica, pre-emergence
How it was run: as §1

pigweed [2] = test: Test D preemergence; assay type: in vivo, Amaranthus retroflexus; settings: Amaranthus retroflexus, pre-emergence
How it was run: as §1

pigweed [3] = test: Test D postemergence; assay type: in vivo, Amaranthus retroflexus; settings: Amaranthus retroflexus, post-emergence, scale 0 to 100 (0 no effect, 100 complete control), read-out: Plant response rating, Pigweed
How it was run: as §1

canarygrass = test: Test D postemergence; assay type: in vivo, Phalaris minor; settings: Phalaris minor, post-emergence, scale 0 to 100 (0 no effect, 100 complete control), read-out: Plant response rating, Canarygrass
How it was run: as §1

chickweed = test: Test D postemergence; assay type: in vivo, Stellaria media; settings: Stellaria media, post-emergence, scale 0 to 100 (0 no effect, 100 complete control), read-out: Plant response rating, Chickweed
How it was run: as §1

wild oat = test: Test D postemergence; assay type: in vivo, Avena fatua; settings: Avena fatua, post-emergence, scale 0 to 100 (0 no effect, 100 complete control), read-out: Plant response rating, Oat, Wild
How it was run: as §1

blackgrass [4] = test: Test D preemergence; assay type: in vivo, Alopecurus myosuroides; settings: Alopecurus myosuroides, pre-emergence, scale 0-100, read-out: Plant response rating, Blackgrass
How it was run: as §1

lambsquarters = test: Test D preemergence; assay type: in vivo, Chenopodium album; settings: Chenopodium album, pre-emergence, scale 0-100, read-out: Plant response rating, Lambsquarters
How it was run: as §1

## N#Cc1cccc(Oc2ncc(Cl)cn2)c1-n1cc(C(F)(F)F)cn1 [Compound 58, 3-[(5-chloro-2-pyrimidinyl)oxy]-2-[4-(trifluoromethyl)-1H-pyrazol-1-yl]benzonitrile]
Italian ryegrass; 31 g ai/ha, scale 0 (no effect) to 100 (complete control), read-out: Plant response rating, Ryegrass, Italian
  pest or weed control at 31 g/ha: 10%
Italian ryegrass; 62 g ai/ha, scale 0-100, read-out: Plant response rating, Ryegrass, Italian
  pest or weed control at 62 g/ha: 35%
Italian ryegrass; 125 g ai/ha, scale 0-100, read-out: Plant response rating, Ryegrass, Italian
  pest or weed control at 125 g/ha: 100%
Italian ryegrass; 250 g ai/ha, scale 0-100, read-out: Plant response rating, Ryegrass, Italian
  pest or weed control at 250 g/ha: 100%
sandbur; Postemergence, 31 g ai/ha, scale 0 to 100
  pest or weed control at 31 g/ha: 10%
sandbur; Postemergence, 62 g ai/ha, scale 0 to 100
  pest or weed control at 62 g/ha: 10%
sandbur; Postemergence, 125 g ai/ha, scale 0 to 100
  pest or weed control at 125 g/ha: 20%
sandbur; Postemergence, 250 g ai/ha, scale 0 to 100
  pest or weed control at 250 g/ha: 55%
sandbur; postemergence, 16 g ai/ha, scale 0 to 100, 0 no effect, 100 complete control
  pest or weed control at 16 g/ha: 0%
Oilseed rape; 31 g ai/ha
  plant injury at 31 g/ha: 100%
Oilseed rape; 62 g ai/ha
  plant injury at 62 g/ha: 100%
Oilseed rape; 125 g ai/ha
  plant injury at 125 g/ha: 100%
Oilseed rape; 250 g ai/ha
  plant injury at 250 g/ha: 100%
Wild radish; 31 g ai/ha
  pest or weed control at 31 g/ha: 65%
Wild radish; 62 g ai/ha
  pest or weed control at 62 g/ha: 70%
Wild radish; 125 g ai/ha
  pest or weed control at 125 g/ha: 90%
Wild radish; 250 g ai/ha
  pest or weed control at 250 g/ha: 95%
Blackgrass [1]; 62 g ai/ha
  pest or weed control at 62 g/ha: 45%
Blackgrass [1]; 31 g ai/ha
  pest or weed control at 31 g/ha: 20%
Blackgrass [1]; 125 g ai/ha
  pest or weed control at 125 g/ha: 70%
Blackgrass [1]; 250 g ai/ha
  pest or weed control at 250 g/ha: 90%
speedwell; 31 g ai/ha, scale 0 (no effect) to 100 (complete control), read-out: Plant response rating, Speedwell
  pest or weed control at 31 g/ha: 100%
speedwell; 62 g ai/ha, scale 0-100, read-out: Plant response rating, Speedwell
  pest or weed control at 62 g/ha: 100%
speedwell; 125 g ai/ha, scale 0-100, read-out: Plant response rating, Speedwell
  pest or weed control at 125 g/ha: 100%
speedwell; 250 g ai/ha, scale 0-100, read-out: Plant response rating, Speedwell
  pest or weed control at 250 g/ha: 100%
Pigweed [2]; 31 g ai/ha, scale 0 (no effect) to 100 (complete control), read-out: Plant response rating, Pigweed
  pest or weed control at 31 g/ha: 100%
Pigweed [2]; 62 g ai/ha, scale 0-100, read-out: Plant response rating, Pigweed
  pest or weed control at 62 g/ha: 100%
Pigweed [2]; 125 g ai/ha, scale 0-100, read-out: Plant response rating, Pigweed
  pest or weed control at 125 g/ha: 100%
Pigweed [2]; 250 g ai/ha, scale 0-100, read-out: Plant response rating, Pigweed
  pest or weed control at 250 g/ha: 100%
Pigweed [3]; 31 g ai/ha
  pest or weed control at 31 g/ha: 90%
Pigweed [3]; 62 g ai/ha
  pest or weed control at 62 g/ha: 100%
Pigweed [3]; 125 g ai/ha
  pest or weed control at 125 g/ha: 100%
Pigweed [3]; 250 g ai/ha
  pest or weed control at 250 g/ha: 100%
canarygrass; 31 g ai/ha
  pest or weed control at 31 g/ha: 35%
canarygrass; 62 g ai/ha
  pest or weed control at 62 g/ha: 40%
canarygrass; 125 g ai/ha
  pest or weed control at 125 g/ha: 50%
canarygrass; 250 g ai/ha
  pest or weed control at 250 g/ha: 70%
chickweed; 31 g ai/ha
  pest or weed control at 31 g/ha: 70%
chickweed; 62 g ai/ha
  pest or weed control at 62 g/ha: 90%
chickweed; 125 g ai/ha
  pest or weed control at 125 g/ha: 100%
chickweed; 250 g ai/ha
  pest or weed control at 250 g/ha: 100%
Wild oat; 31 g ai/ha
  pest or weed control at 31 g/ha: 30%
Wild oat; 62 g ai/ha
  pest or weed control at 62 g/ha: 35%
Wild oat; 125 g ai/ha
  pest or weed control at 125 g/ha: 35%
Wild oat; 250 g ai/ha
  pest or weed control at 250 g/ha: 55%
Blackgrass [4]; 31 g ai/ha
  pest or weed control at 31 g/ha: 20%
Blackgrass [4]; 62 g ai/ha
  pest or weed control at 62 g/ha: 55%
Blackgrass [4]; 125 g ai/ha
  pest or weed control at 125 g/ha: 100%
Blackgrass [4]; 250 g ai/ha
  pest or weed control at 250 g/ha: 100%
lambsquarters; 31 g ai/ha
  pest or weed control at 31 g/ha: 100%
lambsquarters; 62 g ai/ha
  pest or weed control at 62 g/ha: 100%
lambsquarters; 125 g ai/ha
  pest or weed control at 125 g/ha: 100%
lambsquarters; 250 g ai/ha
  pest or weed control at 250 g/ha: 100%
